The results in this text go back to US20240158418A1 (C4 Therapeutics, Inc., priority 2021, published 2024).

Where only a bound is given, the exact number is not on record here.

For test [1], the target named is T1, Phospho-EGFR Receptor Tyr1068 (Homo sapiens, UniProt P00533, L858R/T790M).
T1 construct: female BALB/c nude mice bearing NCI-H1975 NSCLC tumors; from tissue; host or cells: NCI-H1975 subcutaneous xenograft tumours from female BALB/c nude mice
The test is described as follows: Phospho-EGFR in NCI-H1975 tumors after single oral dose (western blot). Format: in vivo, female BALB/c nude mice. The protocol:
Compound 1 was administered as a single oral (PO) dose at 10, 25, or 50 mg/kg to female BALB/c nude mice with NCI-H1975 tumors. At 4h, 6h or 12h tumors were harvested and the protein expression of mutant EGFR-L858R and phospho-EGFR was measured by western blot.
A xenograft study was conducted in female BALB/c nude mice bearing NCI-H1975 NSCLC tumors. Female nude mice were inoculated subcutaneously in the right flank with 5×10^6 tumors cells in 0.1 mL of PBS. Tumor volume was measured twice weekly in two dimensions using calipers, and volume (mm^3) was calculated using the formula: V=0.5 a×b2 where a and b are the long and short diameters of the tumor in mm, respectively. […]
All agents were administered to mice bearing NCI-H1975 tumors on day 0 as a single oral (PO) dose. […] Protein concentration was quantified using a Pierce™ BCA Protein Assay Kit, samples were reduced, and equal protein amounts were then loaded onto a western blot gel for analysis. Tumors were analyzed for EGFR Receptor L858R Mutant Specific (CST, 3197) or Phospho-EGFR Receptor Tyr1068 (CST, 2234) expression. The intensity of individual bands was measured for data analysis using Image Studio software. Protein expression was quantitated in relation to the reference protein, alpha-tubulin, to control for total protein concentration. […]
(A western blot detects proteins with antibodies after separation by electrophoresis.)

Another test has as its target T2, pY1068 EGFR (Homo sapiens, UniProt P00533, L858R).
T2 construct: NCI-H3255 (harboring EGFR heterozygous L858R mutation); host or cells: NCI-H3255
The test can be described thus: Western blot NCI-H3255, Compound 1 with or without osimertinib: phospho-EGFR. It is filed as cell-based. The following applies: NCI-H3255, six hours, 0-1,500 nM, presence and absence of 1,500 nM osimertinib. The source says:
The compound bearing solutions were formulated to achieve a 0.1% final concentration of DMSO. […] Antibodies used in western blot were purchased from the following vendors: EGFR-L858R specific antibody (CST 3197), pY1068 EGFR (CST 2234), pERK (CST 4370), ERK (CST 4695), vinculin (Millipore 05-386).

The target of another test is EGFR L858R (Homo sapiens, UniProt P00533, L858R). The test is described as follows: KINOMEscan scanMAX, EGFR-L858R. Format: binding. As to conditions: 100 nM. More on the design: purchased Eurofins DiscoverX KINOMEscan scanMAX; host or cells: E. coli BL21-derived (T7 phage) or HEK-293. The protocol: Kinome-wide binding selectivity of CFT8919 was assessed via the KINOMEscan scanMAX assay at Eurofins DiscoverX (Freemont, CA, USA). Compound was tested at 100 nM against a diverse panel of 468 kinases. The size of circles was mapped onto the kinase phylogenetic tree utilizing DiscoverX TREEspot using <50% of % control as a cutoff.
For most assays, kinase-tagged T7 phage strains were grown in parallel in 24-well blocks in an E. coli host derived from the BL21 strain. E. coli were grown to log-phase and infected with T7 phage from a frozen stock (multiplicity of infection=0.4) and incubated with shaking at 32° C. until lysis (90-150 minutes). The lysates were centrifuged (6,000×g) and filtered (0.2 μm) to remove cell debris. The remaining kinases were produced in HEK-293 cells and subsequently tagged with DNA for qPCR detection. Streptavidin-coated magnetic beads were treated with biotinylated small molecule ligands for 30 minutes at room temperature to generate affinity resins for kinase assays. The liganded beads were blocked with excess biotin and washed with blocking buffer (SeaBlock (Pierce), 1% BSA, 0.05% Tween 20, 1 mM DTT) to remove unbound ligand and to reduce non-specific phage binding. […] Test compounds were prepared as 40× stocks in 100% DMSO and directly diluted into the assay. […] The kinase concentration in the eluates was measured by qPCR.

Consider `O=C1CC[C@H](Nc2ccc(N3CCC(O)(CC(=O)N4CC5(C4)CN(c4ccc(-c6cc(F)c7c(c6)C(=O)N(C(C(=O)Nc6nccs6)c6ncn8c6CCC8)C7)cc4)C5)CC3)c(F)c2)C(=O)N1` (stereo partly drawn) [Compound 1, 2-(6,7-dihydro-5H-pyrrolo[1,2-c]imidazol-1-yl)-2-[6-[4-[2-[2-[1-[4-[[(3S)-2,6-dioxo-3-piperidyl]amino]-2-fluoro-phenyl]-4-hydroxy-4-piperidyl]acetyl]-2,6-diazaspiro[3.3]heptan-6-yl]phenyl]-4-fluoro-1-oxo-isoindolin-2-yl]-N-thiazol-2-yl-acetamide], for which the “phospho-EGFR decrease in vivo” value in test [1] (after a single oral dose, NCI-H1975 tumors) is over 95%. Also, in test [1] (single PO dose 10, 25 or 50 mg/kg, 4, 6 and 12 hours), the “phospho-EGFR protein expression in tumors” value is “phospho-EGFR inhibition”. On pY1068 EGFR, the “phospho-EGFR inhibition (western blot)” value is recorded as “inhibited”. The molecule also yielded a percent binding remaining on EGFR L858R of under 50%.
